Test results taken from ChEMBL document CHEMBL4145452, “Polymeric bile acid sequestrants: Review of design, in vitro binding activities, and hypocholesterolemic effects” (Eur J Med Chem, 2018).

Species: Homo sapiens
Assay: Hypocholesterolemic effect in hypercholesterolemia patient assessed as decrease in LDL cholesterol level
Format: functional
Parameters: scale not given: the % may be the effect or the level left

Compound: CC[C@H](C)C(=O)O[C@H]1C[C@@H](C)C=C2C=C[C@H](C)[C@H](CC[C@@H]3C[C@@H](O)CC(=O)O3)[C@H]21 [LOVASTATIN]
- Activity: 22%
